Experimental data as given in PubChem BioAssay (NCI).
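All cell lines were grown in 96-well plates and treated with compound for 48 hours. GI50: concentration for 50% inhibition of growth. TGI: total growth inhibition.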

Assays:
Assay in all cases: NCI tumour cell line growth inhibition, 48 h
786-0 renal = tested on: 786-0 renal
A498 renal = tested on: A498 renal
A549 NSCLC = tested on: A549 NSCLC
ACHN renal = tested on: ACHN renal
BT-549 breast = tested on: BT-549 breast
CAKI-1 renal = tested on: CAKI-1 renal
CCRF-CEM leukemia = tested on: CCRF-CEM leukemia
COLO 205 colon = tested on: COLO 205 colon
DU-145 prostate = tested on: DU-145 prostate
EKVX NSCLC = tested on: EKVX NSCLC
HCC-2998 colon = tested on: HCC-2998 colon
HCT-116 colon = tested on: HCT-116 colon
HCT-15 colon = tested on: HCT-15 colon
HL-60(TB) leukemia = tested on: HL-60(TB) leukemia
HOP-62 NSCLC = tested on: HOP-62 NSCLC
HOP-92 NSCLC = tested on: HOP-92 NSCLC
HS 578T breast = tested on: HS 578T breast
HT29 colon = tested on: HT29 colon
IGROV1 ovarian = tested on: IGROV1 ovarian
K-562 leukemia = tested on: K-562 leukemia
KM12 colon = tested on: KM12 colon
LOX IMVI melanoma = tested on: LOX IMVI melanoma
M14 melanoma = tested on: M14 melanoma
MALME-3M melanoma = tested on: MALME-3M melanoma
MCF7 breast = tested on: MCF7 breast
MDA-MB-231 breast = tested on: MDA-MB-231 breast
MDA-MB-435 = tested on: MDA-MB-435
MDA-MB-468 breast = tested on: MDA-MB-468 breast
MOLT-4 leukemia = tested on: MOLT-4 leukemia
NCI-H226 lung = tested on: NCI-H226 lung
NCI-H23 lung = tested on: NCI-H23 lung
NCI-H460 lung = tested on: NCI-H460 lung
NCI-H522 lung = tested on: NCI-H522 lung
NCI/ADR-RES ovarian = tested on: NCI/ADR-RES ovarian
OVCAR-3 ovarian = tested on: OVCAR-3 ovarian
OVCAR-4 ovarian = tested on: OVCAR-4 ovarian
OVCAR-5 ovarian = tested on: OVCAR-5 ovarian
OVCAR-8 ovarian = tested on: OVCAR-8 ovarian
PC-3 prostate = tested on: PC-3 prostate
RPMI-8226 leukemia = tested on: RPMI-8226 leukemia
RXF 393 renal = tested on: RXF 393 renal
SF-268 CNS = tested on: SF-268 CNS
SF-295 CNS = tested on: SF-295 CNS
SF-539 CNS = tested on: SF-539 CNS
SK-MEL-2 melanoma = tested on: SK-MEL-2 melanoma
SK-MEL-28 melanoma = tested on: SK-MEL-28 melanoma
SK-MEL-5 melanoma = tested on: SK-MEL-5 melanoma
SK-OV-3 ovarian = tested on: SK-OV-3 ovarian
SN12C renal = tested on: SN12C renal
SNB-19 CNS = tested on: SNB-19 CNS
SNB-75 CNS = tested on: SNB-75 CNS
SR leukemia = tested on: SR leukemia
SW-620 colon = tested on: SW-620 colon
T-47D breast = tested on: T-47D breast
TK-10 renal = tested on: TK-10 renal
U251 CNS = tested on: U251 CNS
UACC-257 melanoma = tested on: UACC-257 melanoma
UACC-62 melanoma = tested on: UACC-62 melanoma
UO-31 renal = tested on: UO-31 renal

Compound: COc1csc(/C=N/NC(=O)c2[nH]c3ccc(Br)cc3c2-c2ccccc2)c1
- GI50 (786-0 renal): 85.1 nM
- TGI (786-0 renal): 9690 nM
- GI50 (A498 renal): 24000 nM
- TGI (A498 renal): 70100 nM
- GI50 (A549 NSCLC): 39.3 nM
- TGI (A549 NSCLC): 22000 nM
- GI50 (ACHN renal): 63.4 nM
- TGI (ACHN renal): 34700 nM
- GI50 (BT-549 breast): 30.5 nM
- TGI (BT-549 breast): 354 nM
- GI50 (CAKI-1 renal): 111 nM
- TGI (CAKI-1 renal): 34600 nM
- GI50 (CCRF-CEM leukemia): 29.9 nM
- TGI (CCRF-CEM leukemia): 1020 nM
- GI50 (COLO 205 colon): 26.5 nM
- TGI (COLO 205 colon): 70.3 nM
- GI50 (DU-145 prostate): 36.8 nM
- TGI (DU-145 prostate): 11500 nM
- GI50 (EKVX NSCLC): 86.3 nM
- TGI (EKVX NSCLC): > 100000 nM
- GI50 (HCC-2998 colon): 89.4 nM
- TGI (HCC-2998 colon): 17300 nM
- GI50 (HCT-116 colon): 30.5 nM
- TGI (HCT-116 colon): 1150 nM
- GI50 (HCT-15 colon): 33.2 nM
- TGI (HCT-15 colon): 14800 nM
- GI50 (HL-60(TB) leukemia): 30.2 nM
- TGI (HL-60(TB) leukemia): 180 nM
- GI50 (HOP-62 NSCLC): 79.4 nM
- TGI (HOP-62 NSCLC): 10500 nM
- GI50 (HOP-92 NSCLC): 920 nM
- TGI (HOP-92 NSCLC): 51200 nM
- GI50 (HS 578T breast): 34.6 nM
- TGI (HS 578T breast): 22700 nM
- GI50 (HT29 colon): 26.7 nM
- TGI (HT29 colon): 69.1 nM
- GI50 (IGROV1 ovarian): 77.8 nM
- TGI (IGROV1 ovarian): 17800 nM
- GI50 (K-562 leukemia): 30.5 nM
- TGI (K-562 leukemia): 13100 nM
- GI50 (KM12 colon): 37.3 nM
- TGI (KM12 colon): 10900 nM
- GI50 (LOX IMVI melanoma): 30.2 nM
- TGI (LOX IMVI melanoma): 18900 nM
- GI50 (M14 melanoma): 29.2 nM
- TGI (M14 melanoma): 22500 nM
- GI50 (MALME-3M melanoma): 45.3 nM
- TGI (MALME-3M melanoma): 20500 nM
- GI50 (MCF7 breast): 28 nM
- TGI (MCF7 breast): 12700 nM
- GI50 (MDA-MB-231 breast): 26.4 nM
- TGI (MDA-MB-231 breast): 69.3 nM
- GI50 (MDA-MB-435): 27.2 nM
- TGI (MDA-MB-435): 98.5 nM
- GI50 (MDA-MB-468 breast): 23.2 nM
- TGI (MDA-MB-468 breast): 65.1 nM
- GI50 (MOLT-4 leukemia): 46.3 nM
- TGI (MOLT-4 leukemia): > 37400 nM
- GI50 (NCI-H226 lung): 315 nM
- TGI (NCI-H226 lung): 2160 nM
- GI50 (NCI-H23 lung): 42.7 nM
- TGI (NCI-H23 lung): 17000 nM
- GI50 (NCI-H460 lung): 34.6 nM
- TGI (NCI-H460 lung): 10600 nM
- GI50 (NCI-H522 lung): < 13.8 nM
- TGI (NCI-H522 lung): 41.3 nM
- GI50 (NCI/ADR-RES ovarian): 23.8 nM
- TGI (NCI/ADR-RES ovarian): 57.4 nM
- GI50 (OVCAR-3 ovarian): 32.5 nM
- TGI (OVCAR-3 ovarian): 720 nM
- GI50 (OVCAR-4 ovarian): 5420 nM
- TGI (OVCAR-4 ovarian): > 100000 nM
- GI50 (OVCAR-5 ovarian): 47.5 nM
- TGI (OVCAR-5 ovarian): 53200 nM
- GI50 (OVCAR-8 ovarian): 28.9 nM
- TGI (OVCAR-8 ovarian): 2000 nM
- GI50 (PC-3 prostate): 57.5 nM
- TGI (PC-3 prostate): 48800 nM
- GI50 (RPMI-8226 leukemia): 39.1 nM
- TGI (RPMI-8226 leukemia): 8210 nM
- GI50 (RXF 393 renal): 49.6 nM
- TGI (RXF 393 renal): 906 nM
- GI50 (SF-268 CNS): 48.8 nM
- TGI (SF-268 CNS): > 54200 nM
- GI50 (SF-295 CNS): 30.3 nM
- TGI (SF-295 CNS): 6480 nM
- GI50 (SF-539 CNS): 21.7 nM
- TGI (SF-539 CNS): 53.1 nM
- GI50 (SK-MEL-2 melanoma): 35.5 nM
- TGI (SK-MEL-2 melanoma): 389 nM
- GI50 (SK-MEL-28 melanoma): 1730 nM
- TGI (SK-MEL-28 melanoma): 46500 nM
- GI50 (SK-MEL-5 melanoma): 26.3 nM
- TGI (SK-MEL-5 melanoma): 76.9 nM
- GI50 (SK-OV-3 ovarian): 51.9 nM
- TGI (SK-OV-3 ovarian): 15500 nM
- GI50 (SN12C renal): 38.7 nM
- TGI (SN12C renal): 9100 nM
- GI50 (SNB-19 CNS): 47 nM
- TGI (SNB-19 CNS): 18400 nM
- GI50 (SNB-75 CNS): 100 nM
- TGI (SNB-75 CNS): 3780 nM
- GI50 (SR leukemia): 23.5 nM
- TGI (SR leukemia): 23300 nM
- GI50 (SW-620 colon): 42.4 nM
- TGI (SW-620 colon): > 100000 nM
- GI50 (T-47D breast): 3890 nM
- TGI (T-47D breast): > 95800 nM
- GI50 (TK-10 renal): 13200 nM
- TGI (TK-10 renal): 43600 nM
- GI50 (U251 CNS): 32 nM
- TGI (U251 CNS): 12300 nM
- GI50 (UACC-257 melanoma): 635 nM
- TGI (UACC-257 melanoma): > 67200 nM
- GI50 (UACC-62 melanoma): 42 nM
- TGI (UACC-62 melanoma): 16700 nM
- GI50 (UO-31 renal): 60.2 nM
- TGI (UO-31 renal): > 100000 nM
